Measurements published in patent publication US20260378560A1, “APPROACHES TO DESIGNING AND PERFORMING COMPRESSED BIOLOGICAL EXPERIMENTS AND SYSTEMS FOR IMPLEMENTING THE SAME” (EXVIVO LABS INC., priority 2023, published 2026).

Assays:
[1] = system: MOLT-4; assay: Cell viability (CellTiter Glo), compressed perturbation pools with informed pool design, MAX-based deconvolution, MOLT-4; conditions: for DRS: MOLT-4, None (measured individually), informed pool design table; for DRS from MAX-based deconvolution: MOLT-4, Samples, 7 Pick 3 informed perturbation pools; for DRS, MOLT-4, MAX: compressed perturbation pools, informed pool design, MAX-based deconvolution;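 as to DRS from MAX-based deconvolution: higher DRS means a larger drug effect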
How it was run: (§1)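 Drugs dosed from 1 nM to 10 μM with ATP-luminescence viability, giving a DRS per drug. Pools designed by drug class, with same-class drugs in separate cohorts and clinically toxic pairs kept apart.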

[2] = system: REH; assay: Cell viability (CellTiter Glo), compressed perturbation pools with informed pool design, MAX-based deconvolution, REH; conditions: for DRS: None (measured individually), informed pool design table; for DRS from MAX-based deconvolution: Samples, 7 Pick 3 informed perturbation pools; for DRS, REH, MAX: compressed perturbation pools, informed pool design, MAX-based deconvolution;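 as to DRS from MAX-based deconvolution: higher DRS means a larger drug effect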
How it was run: as §1

[3] = system: MOLT-4; assay: Cell viability (CellTiter Glo), library of cancer drugs, individual or sample compression with randomized (alphabetical) pools, MOLT-4; assay type: cell-based; conditions: for DRS: MOLT-4, None (measured individually); for DRS from deconvolution: MOLT-4, Samples, 7 Pick 3 randomized (alphabetical) sample pools
How it was run: (§2)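 Cells cultured with each drug individually at 1 nM–10 μM; viability by ATP luminescence (CellTiter Glo) to build dose-response curves and DRS. Samples read singly or pooled alphabetically (each drug in 3 of 7 pools), with pooled DRS recovered by additivity-based SUM deconvolution.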

[4] = system: MOLT-4; assay: Cell viability (CellTiter Glo), compressed perturbation pools with informed pool design, SUM-based deconvolution, MOLT-4; set-up: scale not given here
Method: (§3) Total cell viability was measured for each sample using an ATP-based luminescence assay (i.e., CellTiter Glo). Each cancer drug was then screened at multiple concentrations ranging from one nM to ten μM in order to generate a dose-response curve and calculate a DRS for each cancer cell line.
(§4) Each cancer drug was cultured with target cells individually. At the end of the screen, samples were either analyzed individually or compressed into pools for analysis. The library was compressed alphabetically into ten cohorts, each of which contained seven cancer drugs present in three out of the seven pools, as shown in Table VII. Said another way, the screening platform 210 generated a “7 pick 3” compressed library by assigning the cancer drugs among different pools. […] The library was also compressed into ten cohorts with pools designed based on information known about each cancer drug, as shown in Table VIII. After cell viability measurement and DRS calculation, the DRS of each cancer drug in the samples generated based on the pools were deconvoluted and compared to the DRS for each cancer drug measured individually.
(§5) In parallel to the exemplary sample compression screen covered in Table VII, perturbations were compressed into pools and then screened. The pools were designed using drug class as a feature with two compression rules (or simply “rules”). The first rule required that drugs from the same class be separated into different cohorts (i.e., mutually exclusive groups of pools). The second rule separated PI3K pathway inhibitors from MAPK pathway inhibitors, as inhibiting these pathways in parallel is known to be synergistic but has not been clinically effective due to dose-limiting toxicities. A benefit of compressing perturbations is the ability to measure additive, antagonistic, and synergistic effects between drugs in the same pool. However, these effects can negatively impact deconvolution of individual drug effects. Therefore, combinations of drugs for which evidence of clinical toxicity exists can be assigned to different pools in accordance with an informed pooling operation. As new preclinical or clinical evidence of toxic combinations becomes available, the rules implemented by the screening platform 210—and more specifically, its algorithm for compressing members of a library—can be updated accordingly.
(§6) In SUM-based deconvolution, an assumption of additivity is used to quantify the individual effects of each perturbation on each target. Additivity implies that each perturbation effect on each target is positively contributing to the overall effect measured for that pool. This is an accurate assumption for certain experiments, such as when targets or samples are compressed. When targets are pooled—or when samples containing different targets are pooled—the effect of each perturbation on each individual target is diluted. In other words, each perturbation has an isolated effect on a target in culture, and the sum total of the isolated effects are measured when pooled. Therefore, SUM-based deconvolution breaks down the sum total measured for a pool and assigns estimated fractional effects to each compressed perturbation or target in the pool. The screening platform 210 used SUM-based deconvolution for all target and sample compression experiments described above.
(§7) As mentioned above, SUM-based deconvolution uses the overlapping pool design to identify relative relationships and ranges for the individual effects of each perturbation. When the overlapping pool design is not sufficient to solve for the polynomials representing perturbation effects, an anchor perturbation can be identified by the screening platform 210 based on rank order and assigned an effect size of zero. The anchor perturbation may be the lowest ranked perturbation in the rank order. This then enables the screening platform 210 to solve for the polynomials for the remaining perturbations.

[5] = system: REH; assay: Cell viability (CellTiter Glo), compressed perturbation pools with informed pool design, SUM-based deconvolution, REH; set-up: scale not given here
Method: as §3, §4, §5, §6, §7

[6] = system: REH; assay: Cell viability (CellTiter Glo), library of cancer drugs, individual or sample compression with randomized (alphabetical) pools, REH; assay type: cell-based; conditions: REH; for DRS: None (measured individually); for DRS from deconvolution: Samples, 7 Pick 3 randomized (alphabetical) sample pools
How it was run: as §2

| SMILES | DRS [1] | DRS from MAX-based deconvolution [1] | DRS, MOLT-4, MAX [1] | DRS ([2]; REH) | DRS from MAX-based deconvolution ([2]; REH) | DRS, REH, MAX ([2]; REH) | DRS [3] | DRS from deconvolution [3] | DRS, MOLT-4, SUM [4] | DRS, REH, SUM [5] | DRS [6] | DRS from deconvolution [6] | top hit of cohort (deconvoluted effect size) ([1]; MOLT, informed perturbation pools) | top hit of cohort (deconvoluted effect size) ([2]; REH, informed perturbation pools) | effect on REH relative to MOLT cell line ([2]; REH relative to MOLT) |
| --- | --- | --- | --- | --- | --- | --- | --- | --- | --- | --- | --- | --- | --- | --- | --- |
| CCN1CCN(Cc2ccc(Nc3ncc(F)c(-c4cc(F)c5nc(C)n(C(C)C)c5c4)n3)nc2)CC1 [Abemaciclib] | 15.70 | 17.03 | 0.00 | 13.34 | 15.14 | 0.00 | 0.50 | 0.55 | 1.08 | 2.69 | 2.40 | 2.57 |  |  |  |
| Cc1nc(NC(=O)N2CCC[C@H]2C(N)=O)sc1-c1ccnc(C(C)(C)C(F)(F)F)c1 [Alpelisib] | 0.01 | 0.00 | 0.00 | 0.21 | 0.35 | 3.57 | 1.79 | 1.94 | 0.00 | 1.12 | 0.79 | 0.75 |  |  |  |
| CNC(=O)c1ccc(N2C(=S)N(c3cnc(C#N)c(C(F)(F)F)c3)C(=O)C23CCC3)cc1F [Apalutamide] | 0.00 | 0.00 | 4.94 | 0.00 | 0.00 | 0.73 | 0.38 | 0.33 | 1.88 | 0.73 | 0.38 | 0.35 |  |  |  |
| O=C(/C=C/c1cccc(S(=O)(=O)Nc2ccccc2)c1)NO [Belinostat] | 13.42 | 15.55 | 21.41 | 12.12 | 14.23 | 18.94 | 18.70 | 12.21 | 14.77 | 18.09 | 16.20 | 15.81 |  |  |  |
| CC(C)C[C@H](NC(=O)[C@H](Cc1ccccc1)NC(=O)c1cnccn1)B(O)O [Bortezomib] | 2.50 | 2.76 | 28.24 | 2.40 | 2.90 | 31.61 | 25.00 | 25.41 | 23.95 | 22.86 | 27.70 | 28.16 | top hit | top hit |  |
| C[C@@H](Oc1cc(-c2cnn(C3CCNCC3)c2)cnc1N)c1c(Cl)ccc(F)c1Cl [Crizotinib] | 0.27 | 0.27 | 0.00 | 0.27 | 0.00 | 0.00 | 0.23 | 0.28 | 3.06 | 0.00 | 0.23 | 015 |  |  |  |
| COc1cc2ncnc(Nc3ccc(F)c(Cl)c3)c2cc1NC(=O)/C=C/CN1CCCCC1 [Dacomitinib] | 0.00 | 0.00 | 0.00 | 0.00 | 0.00 | 0.00 | 2.60 | 2.53 | 0.99 | 1.33 | 3.10 | 3.15 |  |  |  |
| COc1cc(OC)cc(N(CCNC(C)C)c2ccc3ncc(-c4cnn(C)c4)nc3c2)c1 [Erdafitinib] | 0.38 | 4.94 | 3.88 | 0.38 | 0.73 | 0.00 | 3.37 | 3.41 | 1.38 | 0.00 | 4.37 | 4.03 |  |  |  |
| C#Cc1cccc(Nc2ncnc3cc(OCCOC)c(OCCOC)cc23)c1 [Erlotinib] | 0.68 | 5.39 | 0.00 | 5.88 | 7.06 | 0.00 | 1.04 | 0.96 | 1.55 | 1.67 | 1.84 | 1.59 |  |  |  |
| CO[C@H]1C[C@@H]2CC[C@@H](C)[C@@](O)(O2)C(=O)C(=O)N2CCCC[C@H]2C(=O)O[C@H]([C@H](C)C[C@@H]2CC[C@@H](OCCO)[C@H](OC)C2)CC(=O)[C@H](C)/C=C(\C)[C@@H](O)[C@@H](OC)C(=O)[C@H](C)C[C@H](C)/C=C/C=C/C=C/1C [Everolimus] | 0.23 | 0.00 | 2.51 | 0.23 | 0.00 | 9.02 | 2.19 | 2.35 | 1.42 | 9.02 | 7.39 | 7.70 |  |  | much larger effects on the REH cell line |
| CC[C@H](Nc1ncnc2[nH]cnc12)c1nc2cccc(F)c2c(=O)n1-c1ccccc1 [Idelalisib] | 0.00 | 0.00 | 0.00 | 0.30 | 0.74 | 0.00 | 0.80 | 0.69 | 0.54 | 0.00 | 0.91 | 0.85 |  |  |  |
| Cc1ccc(NC(=O)c2ccc(CN3CCN(C)CC3)cc2)cc1Nc1nccc(-c2cccnc2)n1 [Imatinib] | 13.99 | 15.14 | 0.00 | 15.29 | 18.48 | 0.00 | 0.88 | 0.89 | 1.34 | 1.81 | 1.78 | 1.90 |  |  |  |
| COc1cc2nccc(Oc3ccc(NC(=O)NC4CC4)c(Cl)c3)c2cc1C(N)=O [Lenvatinib] | 0.00 | 0.00 | 0.00 | 0.00 | 0.00 | 0.00 | 0.74 | 0.77 | 0.89 | 0.00 | 0.14 | 0.00 |  |  |  |
